# Assay results from US10973823B2, “Anti-cancer composition consisting of halofuginone and sesquiterpene lactone compounds of artemisia apiacea and use thereof” (Hong Kong Baptist University, priority 2016, dated 2021).
# How the values were obtained:
# Settings in all cases: alone or combined, 24 hours
# [1] = test system: colon cancer cell HCT-116; experiment: MTT assay, colon cancer cell HCT-116; type: cell-based, Human
# Experimental: (§1) Human colon cancer cell line HCT-116 was seeded on a 96-well plate, with 100 μl of cell suspension in each well. The culture medium was DMEM supplemented with 10% FBS and 2 mM glutamate. […] 24 hours after adding the compound, the cell survival rate was assessed using the MTT assay, and the combination index (CI) of the combined pharmaceutical of HF and ATS was calculated using the Calcusyn software. Tumor cell survival rate=the OD value of the experimental group/the OD value of the control group×100%
# melanoma cell A375 = experiment: MTT assay, melanoma cell A375; type: cell-based
# Experimental: as §1, with “Melanoma” for “Human colon cancer”, “A375” for “HCT-116”, “software.” for “software. Tumor cell survival rate=the OD value of the experimental group/the OD value of the control group×100%”
# liver cancer cell HepG2 = experiment: MTT assay, liver cancer cell HepG2; type: cell-based
# Experimental: as §1, with “Liver” for “Human colon”, “HepG2” for “HCT-116”, “software.” for “software. Tumor cell survival rate=the OD value of the experimental group/the OD value of the control group×100%”
# breast cancer cell MCF-7 = experiment: MTT assay, breast cancer cell MCF-7; type: cell-based
# Experimental: as §1, with “Breast” for “Human colon”, “MCF-7” for “HCT-116”, “software.” for “software. Tumor cell survival rate=the OD value of the experimental group/the OD value of the control group×100%”
# [2] = test system: gastric cancer cell MGC803; experiment: MTT assay, gastric cancer cell MGC803; type: cell-based
# Experimental: as §1, with “Gastric” for “Human colon”, “MGC803” for “HCT-116”, “software.” for “software. Tumor cell survival rate=the OD value of the experimental group/the OD value of the control group×100%”
# [3] = HF 10 nM, ATS/DAT/ASU/ATM 160 μM
# [4] = HF 20 nM, ATS/DAT/ASU/ATM 320 μM
# [5] = HF 40 nM, ATS/DAT/ASU/ATM 640 μM
Structure (SMILES),"Cell death rate (%) [1, 3] [%]","Cell death rate (%) [1, 4] [%]","Cell death rate (%) [1, 5] [%]","Cell death rate (%) (melanoma cell A375; HF 10 nM, lactone 160 μM)","Cell death rate (%) (melanoma cell A375; HF 20 nM, lactone 320 μM)","Cell death rate (%) (melanoma cell A375; HF 40 nM, lactone 640 μM)","Cell death rate (%) (liver cancer cell HepG2; HF 10 nM, lactone 160 μM)","Cell death rate (%) (liver cancer cell HepG2; HF 20 nM, lactone 320 μM)","Cell death rate (%) (liver cancer cell HepG2; HF 40 nM, lactone 640 μM)","Cell death rate (%) (breast cancer cell MCF-7; HF 10 nM, lactone 160 μM)","Cell death rate (%) (breast cancer cell MCF-7; HF 20 nM, lactone 320 μM)","Cell death rate (%) (breast cancer cell MCF-7; HF 40 nM, lactone 640 μM)","Cell death rate (%) ([2]; HF 10 nM, lactone 160 μM)","Cell death rate (%) ([2]; HF 20 nM, lactone 320 μM)","Cell death rate (%) ([2]; HF 40 nM, lactone 640 μM)"
"O=C(CC1NCCCC1O)Cn1cnc2cc(Br)c(Cl)cc2c1=O (centres unmarked) [HF, Halofuginone]",19.41 ± 4.03,33.06 ± 3.32,59.27 ± 0.41,5.70 ± 5.44,17.70 ± 2.82,35.70 ± 4.76,0.70 ± 3.11,1.00 ± 2.06,4.00 ± 2.21,2.00 ± 1.28,3.00 ± 0.55,9.10 ± 1.79,8.10 ± 2.77,20.00 ± 4.18,29.00 ± 3.31
"C[C@H]1[C@@H](O)O[C@@H]2O[C@@]3(C)CC[C@H]4[C@H](C)CC[C@@H]1[C@@]24OO3 [DAT, dihydroartemisinin]",36.80 ± 3.33,47.32 ± 3.65,55.57 ± 2.43,16.81 ± 5.83,26.35 ± 1.64,42.55 ± 4.42,0.81 ± 0.83,1.72 ± 0.15,6.59 ± 2.58,8.81 ± 0.83,16.32 ± 1.65,32.59 ± 2.43,1.81 ± 0.83,5.32 ± 1.65,42.59 ± 2.43
"C[C@@H]1CC[C@H]2[C@@H](C)C(=O)O[C@@H]3O[C@@]4(C)CC[C@@H]1[C@]32OO4 [ATS, Artemisinin]",35.89 ± 3.91,48.31 ± 3.61,54.42 ± 2.44,16.50 ± 4.30,26.30 ± 1.33,46.50 ± 3.57,0.90 ± 0.95,1.60 ± 0.08,6.40 ± 2.71,9.50 ± 0.77,16.50 ± 1.47,33.90 ± 2.00,1.00 ± 3.31,4.60 ± 5.51,40.00 ± 3.18
"C[C@H]1[C@H](OC(=O)CCC(=O)O)O[C@@H]2O[C@@]3(C)CC[C@H]4[C@H](C)CC[C@@H]1[C@@]24OO3 [ASU, artesunate]",35.15 ± 3.45,48.31 ± 3.69,53.52 ± 2.46,16.15 ± 4.90,,47.59 ± 3.93,0.95 ± 0.72,1.86 ± 0.09,6.57 ± 2.06,9.15 ± 0.92,16.31 ± 1.69,33.57 ± 2.56,1.15 ± 0.92,5.31 ± 1.69,43.57 ± 2.56
"CO[C@H]1O[C@@H]2O[C@@]3(C)CC[C@H]4[C@H](C)CC[C@@H]([C@H]1C)[C@@]24OO3 [ATM, artemether]",33.17 ± 4.46,46.32 ± 3.45,54.50 ± 2.50,,,,,,,,,,,,
